From the NIST ThermoML archive (doi:10.1016/j.jct.2016.03.028)

What was measured:
[1] = Liquid; for speed of sound: 100 kPa, Frequency=3 MHz, Sing-around technique in a fixed-path interferometer; for mass density: 101.3 kPa, Vibrating tube method
[2] = refractive index (Na D-line) (dimensionless); conditions: 100 kPa, Liquid, Standard Abbe refractometry
[3] = xn = mol fraction of the nth substance listed; conditions: Liquid, x1 = 1; for speed of sound: 100 kPa, Frequency=3 MHz, Sing-around technique in a fixed-path interferometer; for mass density: 101.3 kPa, Vibrating tube method
[4] = refractive index (Na D-line) (dimensionless); xn = mol fraction of the nth substance listed; conditions: 100 kPa, Liquid, Standard Abbe refractometry, x1 = 1

CCOS(=O)(=O)[O-].CCn1cc[n+](C)c1 [1-ethyl-3-methylimidazolium ethyl sulfate]
Conditions	mass density, [1] [kg/m3]	refractive index, [2]	speed of sound, [1] [m/s]
298.15 K	1236.38	1.47907	1680.8
308.15 K	1229.49	1.47645	1656.4
318.15 K	1222.78	1.47374	1632.4
328.15 K	1216.16	1.47112	1608.9

CCCOCCO [2-propoxyethanol]
Conditions	mass density, [1] [kg/m3]	refractive index, [2]	speed of sound, [1] [m/s]
298.15 K	908.31	1.41255	1299.9
308.15 K	899.5	1.40814	1265
318.15 K	890.56	1.40355	1230.1
328.15 K	881.49	1.39908	1195.8

CCOS(=O)(=O)[O-].CCn1cc[n+](C)c1 [1-ethyl-3-methylimidazolium ethyl sulfate] + CCCOCCO
Conditions	mass density, [3] [kg/m3]	refractive index, [4]	speed of sound, [3] [m/s]
298.15 K	1236.38	1.47907	1680.8
308.15 K	1229.49	1.47645	1656.4
318.15 K	1222.78	1.47374	1632.4
328.15 K	1216.16	1.47112	1608.9
